From patent publication US10329282B2, “Rho-associated protein kinase inhibitor, pharmaceutical composition comprising the same, as well as preparation method and use thereof” (Beijing Tide Pharmaceutical Co., Ltd., priority 2017, dated 2019)
pIC50: −log10 of the molar value.

What follows are molecules tested against ROCK2 (Homo sapiens (Human), UniProt O75116) (assay: ROCK2 kinase IC50 assay (CISBIO HTRF KinEASE-STK S2 kit)). Conditions: ROCK2 from Carna Biosciences, 2 h incubation at room temperature.
Type: biochemical
Experimental: The kinase IC50 was determined by a commercialized CISBIO kinase detection kit, HTRF KinEASE-STK S2 kit (62ST2PEC). ROCK2 (01-119) employed in the reaction was purchased from Carna Biosciences.
Before the assay, the following working solutions as needed were formulated with corresponding reagents according to the instruction of the kinase detection kit: 1×kinase buffer, 5×STK-52 substrate working solution (1.5 μM) and 5×ATP working solution (1.5 μM), 5×ROCK2 kinase working solution, 4×Streptavidin-XL665 working solution, and 4×STK-Ab-Cryptate 2 detection solution. Then the assay was performed according to the following procedure.
A solution of a compound at a concentration of 10000 nM was prepared with the 1×kinase buffer containing 2.5% DMSO. Gradient dilution of the solution of the compound was performed with the kinase buffer containing DMSO, so as to obtain solutions of a test compound at 9 different concentrations. In addition to wells of test compounds, a positive well (containing all the reagents except the compound) and a negative well (containing all the reagents except the test compound and kinase) were set. Except for the control wells (positive and negative wells), a solution of a test compound (4 μL) was added to each of the reaction wells, and a solution of 2.5% DMSO was added to the control wells. Then the substrate (2 μM, i.e., 2 μL 5×STK-S2 substrate working solution) was added to each of the reaction wells. The 5×ROCK2 kinase working solution (2 μL, containing 1.4 ng ROCK2 kinase) was added to each of the reaction wells except for the negative well, the volume of which was made up with the 1×kinase buffer (2 μL). The 5×ATP working solution (2 μL) was added to each of the reaction wells, and the mixtures were incubated at room temperature for 2 hours. After the kinase reaction was complete, the 4×Streptavidin-XL665 working solution was added to each of the reaction wells, the solutions were mixed, followed by immediate addition of the 4×STK-Ab-Cryptate 2 detection solution (5 μL), and the mixtures were incubated at room temperature for 1 hour. The fluorescence signal was read on ENVISION (Perkinelmer) (excitation wavelength: 320 nm, and emission wavelength: 665 nm and 615 nm). The inhibitory rate in each well was calculated based on the fluorescence intensity value: ER (Emission Ratio)=(fluorescence intensity at 665 nm/fluorescence intensity at 615 nm); inhibitory rate=(ERpositive−ERtest compound) (ERpositive−ERnegative)*100%. Curves were plotted and fitted to obtain the median inhibitory concentration (IC50) of each teat compound with the PRISM 5.0 software.

Sequence of ROCK2 (O75116 1-553): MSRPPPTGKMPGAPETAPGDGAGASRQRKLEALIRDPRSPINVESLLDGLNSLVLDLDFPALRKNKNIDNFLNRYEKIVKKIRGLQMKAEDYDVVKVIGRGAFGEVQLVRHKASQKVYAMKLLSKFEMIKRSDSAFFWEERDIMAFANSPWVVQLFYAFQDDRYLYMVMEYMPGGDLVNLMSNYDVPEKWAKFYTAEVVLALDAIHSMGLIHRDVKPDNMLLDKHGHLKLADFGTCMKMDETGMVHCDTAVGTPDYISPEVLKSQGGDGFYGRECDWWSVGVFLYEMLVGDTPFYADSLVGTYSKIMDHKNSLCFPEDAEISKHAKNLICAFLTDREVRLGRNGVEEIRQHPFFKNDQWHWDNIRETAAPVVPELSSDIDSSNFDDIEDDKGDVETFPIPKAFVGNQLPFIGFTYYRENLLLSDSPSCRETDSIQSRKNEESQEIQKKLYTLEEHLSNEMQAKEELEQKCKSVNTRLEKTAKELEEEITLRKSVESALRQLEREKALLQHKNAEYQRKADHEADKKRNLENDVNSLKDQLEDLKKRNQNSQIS

Q: How did the pIC50 turn out when CC(C)NC(=O)c1cc2ccc(-c3nccc(Nc4ccc5[nH]ncc5c4)n3)cc2o1 [TDI01102, 6-(4-((1H-indazol-5-yl)amino)pyrimidin-2-yl)-N-isopropylbenzofuran-2-carboxamide] was run?
A: Its pIC50 is 6.96.

Q: How did the pIC50 turn out when CC(C)NC(=O)C1COc2ccc(-c3nccc(Nc4ccc5[nH]ncc5c4)n3)cc2O1 (stereo not drawn) [TDI01103, 7-(4-((1H-indazol-5-yl)amino)pyrimidin-2-yl)-N-isopropyl-2,3-dihydrobenzo[b][1,4]dioxine-2-carboxamide] was run?
A: The pIC50 was 6.78.

Q: How did the pIC50 turn out when CC(C)NC(=O)c1cc2ccc(-c3nccc(Nc4ccc5[nH]ncc5c4)n3)cc2s1 [TDI01104, 6-(4-((1H-indazol-5-yl)amino)pyrimidin-2-yl)-N-isopropylbenzo[b]thiophene-2-carboxamide] was run?
A: Its pIC50 is 7.15.

Q: CC(C)NC(=O)c1ccc2cc(-c3nccc(Nc4ccc5[nH]ncc5c4)n3)sc2c1 [TDI01106, 2-(4-((1H-indazol-5-yl)amino)pyrimidin-2-yl)-N-isopropylbenzo[b]thiophene-6-carboxamide] was tested. Which pIC50 did it give?
A: The pIC50 was 6.95.

Q: CC(C)NC(=O)c1cc2ccc(-c3nccc(Nc4ccc5[nH]ncc5c4)n3)cc2[nH]1 [TDI01108, 6-(4-((1H-indazol-5-yl)amino)pyrimidin-2-yl)-N-isopropyl-1H-indole-2-carboxamide] was tested. Which pIC50 did it give?
A: The pIC50 was 7.66.

Q: CNC(=O)c1cc2ccc(-c3nccc(Nc4ccc5[nH]ncc5c4)n3)cc2s1 [TDI01109, 6-(4-((1H-indazol-5-yl)amino)pyrimidin-2-yl)-N-methylbenzo[b]thiophene-2-carboxamide] was tested. Which pIC50 did it give?
A: Its pIC50 is 6.35.

Q: CN(C)C(=O)c1cc2ccc(-c3nccc(Nc4ccc5[nH]ncc5c4)n3)cc2s1 [TDI01110, 6-(4-((1H-indazol-5-yl)amino)pyrimidin-2-yl)-N,N-dimethylbenzo[b]thiophene-2-carboxamide] was tested. Which pIC50 did it give?
A: The pIC50 was 6.37.

Q: O=C(NC1CC1)c1cc2ccc(-c3nccc(Nc4ccc5[nH]ncc5c4)n3)cc2s1 [TDI01111, 6-(4-((1H-indazol-5-yl)amino)pyrimidin-2-yl)-N-cyclopropylbenzo[b]thiophene-2-carboxamide] was tested. Which pIC50 did it give?
A: Its pIC50 is 7.00.

Q: With O=C(NC1CCCCC1)c1cc2ccc(-c3nccc(Nc4ccc5[nH]ncc5c4)n3)cc2s1 [TDI01112, 6-(4-((1H-indazol-5-yl)amino)pyrimidin-2-yl)-N-cyclohexylbenzo[b]thiophene-2-carboxamide] as the molecule, how does the pIC50 read?
A: Its pIC50 is 6.73.

Q: How did the pIC50 turn out when O=C(NC1CCOC1)c1cc2ccc(-c3nccc(Nc4ccc5[nH]ncc5c4)n3)cc2s1 (stereo not drawn) [TDI01113, 6-(4-((1H-indazol-5-yl)amino)pyrimidin-2-yl)-N-(tetrahydrofuran-3-yl)benzo[b]thiophene-2-carboxamide] was run?
A: Its pIC50 is 7.38.

Q: CN1CCC(NC(=O)c2cc3ccc(-c4nccc(Nc5ccc6[nH]ncc6c5)n4)cc3s2)CC1 [TDI01114, 6-(4-((1H-indazol-5-yl)amino)pyrimidin-2-yl)-N-(1-methylpiperidin-4-yl)benzo[b]thiophene-2-carboxamide] was tested. Which pIC50 did it give?
A: Its pIC50 is 6.80.

Q: How did the pIC50 turn out when CC(C)NC(=O)c1cc2ccc(-c3nc(Nc4ccc5[nH]ncc5c4)cc(OCCN(C)C)n3)cc2s1 [TDI01121, 6-(4-((1H-indazol-5-yl)amino)-6-(2-(dimethylamino)ethoxy)pyrimidin-2-yl)-N-isopropylbenzo[b]thiophene-2-carboxamide] was run?
A: The pIC50 was 6.33.

Q: With CC(C)NC(=O)c1cc2ccc(-c3nc(Nc4ccc5[nH]ncc5c4)c4ccn(CCN(C)C)c4n3)cc2s1 [TDI01122, 6-(4-((1H-indazol-5-yl)amino)-7-(2-(dimethylamino)ethyl)-7H-pyrrolo[2,3-d]pyrimidin-2-yl)-N-isopropylbenzo[b]thiophene-2-carboxamide] as the molecule, how does the pIC50 read?
A: Its pIC50 is 6.66.

Q: CC(C)NC(=O)c1ccc2cc(-c3nccc(Nc4ccc5[nH]ncc5c4)n3)[nH]c2c1 [TDI01127, 2-(4-((1H-indazol-5-yl)amino)pyrimidin-2-yl)-N-isopropyl-1H-indole-6-carboxamide] was tested. Which pIC50 did it give?
A: Its pIC50 is 7.00.

Q: How did the pIC50 turn out when CC(C)NC(=O)c1cc2ccc(-c3nc(Nc4ccc5[nH]ncc5c4)c4ccccc4n3)cc2[nH]1 [TDI01128, 6-(4-((1H-indazol-5-yl)amino)quinazolin-2-yl)-N-isopropyl-1H-indole-2-carboxamide] was run?
A: The pIC50 was 6.84.

Q: How did the pIC50 turn out when COC(=O)c1ccc(NC(=O)c2cc3ccc(-c4nccc(Nc5ccc6[nH]ncc6c5)n4)cc3[nH]2)cc1 [TDI01130, methyl 4-(6-(4-((1H-indazol-5-yl)amino)pyrimidin-2-yl)-1H-indole-2-carboxamido)benzoate] was run?
A: The pIC50 was 7.48.

Q: CN1CCN(c2ccc(NC(=O)c3cc4ccc(-c5nccc(Nc6ccc7[nH]ncc7c6)n5)cc4[nH]3)cc2)CC1 [TDI01131, 6-(4-((1H-indazol-5-yl)amino)pyrimidin-2-yl)-N-(4-(4-methylpiperazin-1-yl)phenyl)-1H-indole-2-carboxamide] was tested. Which pIC50 did it give?
A: The pIC50 was 7.00.

Q: With Cn1cc(NC(=O)c2cc3ccc(-c4nccc(Nc5ccc6[nH]ncc6c5)n4)cc3[nH]2)cn1 [TDI01134, 6-(4-((1H-indazol-5-yl)amino)pyrimidin-2-yl)-N-(1-methyl-1H-pyrazol-4-yl)-1H-indole-2-carboxamide] as the molecule, how does the pIC50 read?
A: Its pIC50 is 7.21.

Q: With CC(C)NC(=O)c1cc2ccc(-c3nc(Nc4ccc5[nH]ncc5c4)c4occc4n3)cc2s1 [TDI01135, 6-(4-((1H-indazol-5-yl)amino)furo[3,2-d]pyrimidin-2-yl)-N-isopropylbenzo[b]thiophene-2-carboxamide] as the molecule, how does the pIC50 read?
A: The pIC50 was 6.91.

Q: How did the pIC50 turn out when CC(C)NC(=O)c1cc2ccc(-c3nc(Nc4ccc5[nH]ncc5c4)c4sccc4n3)cc2s1 [TDI01136, 6-(4-((1H-indazol-5-yl)amino)thieno[3,2-d]pyrimidin-2-yl)-N-isopropylbenzo[b]thiophene-2-carboxamide] was run?
A: Its pIC50 is 7.18.

Q: With CC(NC(=O)c1cc2ccc(-c3nccc(Nc4ccc5[nH]ncc5c4)n3)cc2[nH]1)c1ccccc1 (stereo not drawn) [TDI01140, 6-(4-((1H-indazol-5-yl)amino)pyrimidin-2-yl)-N-(1-phenylethyl)-1H-indole-2-carboxamide] as the molecule, how does the pIC50 read?
A: The pIC50 was 6.96.

Q: With CC(C)NC(=O)c1cc2ccc(-c3nc(Nc4ccc5[nH]ncc5c4)c4sccc4n3)cc2[nH]1 [TDI01141, 6-(4-((1H-indazol-5-yl)amino)thieno[3,2-d]pyrimidin-2-yl)-N-isopropyl-1H-indole-2-carboxamide] as the molecule, how does the pIC50 read?
A: The pIC50 was 7.14.

Q: With CC(C)NC(=O)c1cc2ccc(-c3nc(Nc4ccc5[nH]ncc5c4)c4ccsc4n3)cc2[nH]1 [TDI01142, 6-(4-((1H-indazol-5-yl)amino)thieno[2,3-d]pyrimidin-2-yl)-N-isopropyl-1H-indole-2-carboxamide] as the molecule, how does the pIC50 read?
A: The pIC50 was 6.65.

Q: With CC(C)NC(=O)c1cc2ccc(-c3nc(Nc4ccc5[nH]ncc5c4)c4cc[nH]c4n3)cc2[nH]1 [TDI01143, 6-(4-((1H-indazol-5-yl)amino)-7H-pyrrolo[2,3-d]pyrimidin-2-yl)-N-isopropyl-1H-indole-2-carboxamide] as the molecule, how does the pIC50 read?
A: Its pIC50 is 7.14.

Q: With CC(C)NC(=O)c1cc2ccc(-c3nc(Nc4ccc5[nH]ncc5c4)c4scnc4n3)cc2[nH]1 [TDI01149, 6-(7-((1H-indazol-5-yl)amino)thiazolo[4,5-d]pyrimidin-5-yl)-N-isopropyl-1H-indole-2-carboxamide] as the molecule, how does the pIC50 read?
A: Its pIC50 is 7.00.

Q: With O=C(NC1CC1)c1cc2ccc(-c3nccc(Nc4ccc5[nH]ncc5c4)n3)cc2[nH]1 [TDI01151, 6-(4-((1H-indazol-5-yl)amino)pyrimidin-2-yl)-N-cyclopropyl-1H-indole-2-carboxamide] as the molecule, how does the pIC50 read?
A: Its pIC50 is 7.35.

Q: How did the pIC50 turn out when O=C(Nc1ccncc1)c1cc2ccc(-c3nccc(Nc4ccc5[nH]ncc5c4)n3)cc2[nH]1 [TDI01153, 6-(4-((1H-indazol-5-yl)amino)pyrimidin-2-yl)-N-(pyridin-4-yl)-1H-indole-2-carboxamide] was run?
A: Its pIC50 is 7.80.
